Test results reported in ChEMBL document CHEMBL5113401, “Novel 1,3,4-oxadiazole chalcogen analogues: Synthesis and cytotoxic activity” (Eur J Med Chem, 2022).
Activity calls are given as the source filed them. The rule behind the calls is not given here.

Assays:
PC-3 [1] = test: Induction of cell cycle arrest in human PC-3 cells assessed as accumulation of cells at G1 phase at 1 uM incubated for 6 hrs by FACS flow cytometry analysis (reference value: 44.2 +/- 2.21 %); format: functional
PC-3 [2] = test: Induction of cell cycle arrest in human PC-3 cells assessed as accumulation of cells at S phase at 1 uM incubated for 18 hrs by FACS flow cytometry analysis (reference value: 35.06 %); format: functional
HeLa [3] = test: Induction of apoptosis in human HeLa cells assessed as late apoptotic cells at 1 uM incubated for 24 hrs by Annexin V-FITC/7-AAD staining based flow cytometric analysis (reference value: 11.1 +/- 0.778 %); format: functional
HeLa [4] = test: Induction of cell cycle arrest in human HeLa cells assessed as accumulation of cells at G2/M phase at 1 uM incubated for 6 hrs by FACS flow cytometry analysis (reference value: 12.66 +/- 0.88 %); format: functional
HeLa [5] = test: Induction of cell cycle arrest in human HeLa cells assessed as accumulation of cells at S phase at 1 uM incubated for 18 hrs by FACS flow cytometry analysis (reference value: 17.41 +/- 1.16 %); format: functional
HeLa [6] = test: Induction of cell cycle arrest in human HeLa cells assessed as accumulation of cells at G2/M phase at 1 uM incubated for 12 hrs by FACS flow cytometry analysis (reference value: 12.66 %); format: functional
HeLa [7] = test: Induction of cell cycle arrest in human HeLa cells assessed as accumulation of cells at G2/M phase at 1 uM incubated for 18 hrs by FACS flow cytometry analysis (reference value: 12.66 +/- 0.92 %); format: functional
PC-3 [8] = test: Induction of cell cycle arrest in human PC-3 cells assessed as accumulation of cells at G2/M phase at 1 uM incubated for 12 hrs by FACS flow cytometry analysis (reference value: 20.74 +/- 1.95 %); format: functional
Tubulin (Homo sapiens) [9] = molecular target: T1, Tubulin (Homo sapiens) (UniProt P68371+Q9H4B7+P0DPH7+P68366+Q13509+Q71U36+P04350+Q3ZCM7+P07437+P68363+Q9BQE3+Q6PEY2+Q13885+Q9BVA1+Q9BUF5); test: Inhibition of tubulin polymerization in human HeLa cells assessed as abnormal microtubule network at 0.5 uM incubated for 6 hrs by DAPI staining based fluorescence microscopic analysis; format: cell-based
PC-3 [10] = test: Antiproliferative activity against human PC-3 cells assessed as inhibition of cell growth incubated for 48 hrs by XTT assay; format: functional, cell-based; conditions: PC-3, 48 h
HeLa [11] = test: Induction of cell cycle arrest in human HeLa cells assessed as accumulation of cells at G1 phase at 1 uM incubated for 12 hrs by FACS flow cytometry analysis (reference value: 69.94 %); format: functional
HeLa [12] = test: Induction of cell cycle arrest in human HeLa cells assessed as accumulation of cells at S phase at 1 uM incubated for 6 hrs by FACS flow cytometry analysis (reference value: 17.41 +/- 0.96 %); format: functional
PC-3 [13] = test: Induction of cell cycle arrest in human PC-3 cells assessed as accumulation of cells at S phase at 1 uM incubated for 12 hrs by FACS flow cytometry analysis (reference value: 35.06 +/- 1.36 %); format: functional
PC-3 [14] = test: Inhibition of colony formation in human PC-3 cells at IC50 incubated for 2 weeks with culture medium replacement for every 3 days by crystal violet staining based analysis; format: functional, cell-based
HeLa [15] = test: Induction of apoptosis in human HeLa cells assessed as early apoptotic cells at 1 uM incubated for 24 hrs by Annexin V-FITC/7-AAD staining based flow cytometric analysis (reference value: 2.7 +/- 0.424 %); format: functional
HeLa [16] = test: Induction of apoptosis in human HeLa cells assessed as dead cells at 1 uM incubated for 24 hrs by Annexin V-FITC/7-AAD staining based flow cytometric analysis (reference value: 0.6 +/- 0.707 %); format: functional
PC-3 [17] = test: Induction of cell cycle arrest in human PC-3 cells assessed as accumulation of cells at S phase at 1 uM incubated for 6 hrs by FACS flow cytometry analysis (reference value: 35.06 +/- 1.85 %); format: functional
Tubulin (Homo sapiens) [18] = molecular target: T1, Tubulin (Homo sapiens); test: Inhibition of tubulin polymerization in human HeLa cells assessed as irregular cell morphology at 0.5 uM incubated for 6 hrs by DAPI staining based fluorescence microscopic analysis
HeLa [19] = test: Induction of apoptosis in human HeLa cells assessed as viable cells at 1 uM incubated for 24 hrs by Annexin V-FITC/7-AAD staining based flow cytometric analysis (reference value: 85.6 +/- 1.061%); format: functional; conditions: read-out: Activity
PC-3 [20] = test: Induction of cell cycle arrest in human PC-3 cells assessed as accumulation of cells at G2/M phase at 1 uM incubated for 18 hrs by FACS flow cytometry analysis (reference value: 20.74 %); format: functional
HeLa [21] = test: Induction of cell cycle arrest in human HeLa cells assessed as accumulation of cells at G1 phase at 1 uM incubated for 18 hrs by FACS flow cytometry analysis (reference value: 69.94 +/- 1.25 %); format: functional
PC-3 [22] = test: Induction of cell cycle arrest in human PC-3 cells assessed as accumulation of cells at G1 phase at 1 uM incubated for 12 hrs by FACS flow cytometry analysis (reference value: 44.2 +/- 2.01 %); format: functional
PC-3 [23] = test: Induction of cell cycle arrest in human PC-3 cells assessed as accumulation of cells at G2/M phase at 1 uM incubated for 6 hrs by FACS flow cytometry analysis (reference value: 20.74 +/- 1.93 %); format: functional
HFF-1 = test: Cytotoxicity against HFF-1 cells assessed as reduction in cell viability at 1 to 2 uM incubated for 48 hrs by XTT assay; format: toxicity, cell-based; conditions: human, hff-1, 48 h, dose 1-2 µM
HeLa [24] = test: Induction of cell cycle arrest in human HeLa cells assessed as accumulation of cells at S phase at 1 uM incubated for 12 hrs by FACS flow cytometry analysis (reference value: 17.41 %); format: functional
MCF7 = test: Antiproliferative activity against human MCF7 cells assessed as inhibition of cell growth incubated for 48 hrs by XTT assay; format: functional, cell-based; conditions: MCF7, 48 h
HeLa [25] = test: Inhibition of colony formation in human HeLa cells at IC50 incubated for 2 weeks with culture medium replacement for every 3 days by crystal violet staining based analysis; format: functional, cell-based
HeLa [26] = test: Antiproliferative activity against human HeLa cells assessed as inhibition of cell growth incubated for 48 hrs by XTT assay; format: functional, cell-based
PC-3 [27] = test: Induction of cell cycle arrest in human PC-3 cells assessed as accumulation of cells at G1 phase at 1 uM incubated for 18 hrs by FACS flow cytometry analysis (reference value: 44.2 %); format: functional
Tubulin (Homo sapiens) [28] = molecular target: T1, Tubulin (Homo sapiens); test: Inhibition of tubulin polymerization in human HeLa cells assessed as aberrations in mitotic spindle and nucleus at 0.5 uM incubated for 6 hrs by DAPI staining based fluorescence microscopic analysis; format: cell-based
NB1 = test: Cytotoxicity against human NB1 cells immortalized with hTERT plasmid assessed as reduction in cell viability at 1 to 2 uM incubated for 48 hrs by XTT assay; format: toxicity, cell-based; conditions: nb1, 48 h, dose 1-2 µM
HeLa [29] = test: Induction of cell cycle arrest in human HeLa cells assessed as accumulation of cells at G1 phase at 1 uM incubated for 6 hrs by FACS flow cytometry analysis (reference value: 69.94 +/- 1.71 %); format: functional

Compound: Cc1[nH]c2c(c1-c1nnc(-c3ccccc3)o1)Cc1ccccc1-2
- Activity (PC-3 [1]): 8.34%
- Activity (PC-3 [2]): 5.86%
- Activity (HeLa [3]): 28.5%
- Activity (HeLa [4]): 20.86%
- Activity (HeLa [5]): 8.43%
- Activity (HeLa [6]): 41.41%
- Activity (HeLa [7]): 90.18%
- Activity (PC-3 [8]): 81.52%
- inhibition (Tubulin (Homo sapiens) [9]): Active
- IC50 (PC-3 [10]): 1.66 µM
- Activity (HeLa [11]): 3.54%
- Activity (HeLa [12]): 63.32%
- Activity (PC-3 [13]): 18.48%
- inhibition (PC-3 [14]): Active
- Activity (HeLa [15]): 2.9%
- Activity (HeLa [16]): 6.4%
- Activity (PC-3 [17]): 53.05%
- inhibition (Tubulin (Homo sapiens) [18]): Active
- viability at 1 µM (HeLa [19]): 62.2%
- Activity (PC-3 [20]): 92.97%
- Activity (HeLa [21]): 1.48%
- Activity (PC-3 [22]): 0%
- Activity (PC-3 [23]): 38.61%
- Activity (HFF-1): Non-Toxic
- Activity (HeLa [24]): 55.05%
- IC50 (MCF7): 1.72 µM
- inhibition (HeLa [25]): Active
- IC50 (HeLa [26]): 0.068 µM
- Activity (PC-3 [27]): 1.71%
- inhibition (Tubulin (Homo sapiens) [28]): Active
- Activity (NB1): Non-Toxic
- Activity (HeLa [29]): 16.81%
